This is an account of results in article PMC4977052, “On the Utility of ToxCast™ and ToxPi as Methods for Identifying New Obesogens” (Environmental Health Perspectives, 2016).

Where two headings read alike, the source gives them in different places.

One data set relates to PPRE. Also on record: method as in Knudsen et al. 2011. The note with it: ToxCast Phase I 2011 release; NA = not active; ref Knudsen et al. 2011; read-out: ATGC PPRE AC50; cited from earlier work.
Data set [1] has as its system 3T3-L1 preadipocytes. Set-up: method as in earlier work. The note with it: not tested here; ref Kanayama et al. 2005; Li et al. 2012; Chamorro-García et al. 2012; Masuno et al. 2002; cited from earlier work.
Data set [2] deals with PPARγ. The note with it: cited from earlier work.
Another data set addresses T1, GAL4-mPPARγ (Mus musculus, UniProt P37238).
T1 construct: expressed in transfected cells; host or cells: COS7
Put plainly: GAL4-mPPARγ activation, transient transfection luciferase reporter in COS7 cells. In kind it is cell-based. The note with it: for Activation COS7 (result in words), ToxPi chemicals / AC50 / Activation COS7 (result in words), ToxCast PPARγ list: Cos-7 transient transfection; for Activation COS7 (result in words), ToxPi chemicals: PPARγ or RXRα activation assays (Table 2); for Activation of GAL4-PPARγ (text): COS7, 100 μM through 0.137 μM; for Activation COS7 (result in words), ToxCast PPARγ list: PPARγ activation or antagonism assays (Table 1, Table S6). In general terms: A reporter such as luciferase makes a cellular process visible.

In another data set the test system is DR4/LXRE. Also on record: method as in Knudsen et al. 2011. To be noted: ToxCast Phase I 2011 release; NA = not active; ref Knudsen et al. 2011; read-out: ATGC LXRE AC50; cited from earlier work.
In data set [3] the test system is 3T3-L1 preadipocytes. Put plainly: 3T3-L1 adipogenesis assay (lipid accumulation, adipogenic gene expression). The data set is classed as cell-based. The note with it: 0.02-20 μM, 5 days after MDI induction. In short, it runs like this: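 After 2-day MDI induction with biotin and pantothenate, 3T3-L1 cells were treated 5 days with chemicals at 0.02–20 μM (0.1% DMSO; 10 μM if toxic). Lipid read as Nile red/Hoechst fluorescence ratio; adipogenic genes by QPCR, 2^ΔΔCt versus 36b4, normalized to DMSO.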

In data set [4] the test system is LXRβ. Set-up: method as in Knudsen et al. 2011. The note with it: ToxCast Phase I 2011 release; NA = not active; ref Knudsen et al. 2011; read-out: ATGT LXRβ AC50; cited from earlier work.
Another data set has as its system LXRα. Set-up: method as in Knudsen et al. 2011. To be noted: ToxCast Phase I 2011 release; NA = not active; ref Knudsen et al. 2011; read-out: ATGT LXRα AC50; cited from earlier work.
Data set [5] relates to LXRβ. Also on record: method as in Knudsen et al. 2011. The note with it: ToxCast Phase I 2011 release; NA = not active; ref Knudsen et al. 2011; read-out: NCGC LXR AC50; cited from earlier work.
Another data set concerns SREBP. Set-up: method as in Knudsen et al. 2011. The note with it: ToxCast Phase I 2011 release; NA = not active; ref Knudsen et al. 2011; read-out: ATGC SREBP AC50; cited from earlier work.
A further data set has as its system COS7 cells. Put plainly: Cytotoxicity in transfected COS7 cells measured as decreased β-galactosidase activity. To be noted: African green monkey, 24 h. How it is done:
pCMX-Gal4, pCMX-Gal4-mPPARγ, and pCMX-Gal4-hRXRα were previously described ([Grün et al. 2006]). Transient transfections were performed in COS7 cells as described ([Chamorro-García et al. 2012]). Briefly, COS7 cells were seeded at 15,000 cells per well in 96-well tissue culture plates in 10% calf bovine serum. The following day, cells were transfected in Opti-MEM at ~ 90% confluency. One microgram of CMX-GAL4 effector plasmid was co-transfected with 5 μg tk-(MH100)4-luciferase reporter and 5 μg of CMX-β-galactosidase transfection control plasmids in Opti-MEM® using Lipofectamine® 2000 reagent (Invitrogen™ Life Technologies, Carlsbad, CA, USA), following the manufacturer’s recommended protocol. All chemicals were solvated in dimethyl sulfoxide (DMSO). After overnight incubation, the medium was replaced with Dulbecco’s Modified Eagle Medium (DMEM; HyClone, Logan, UT, USA), 10% resin charcoal stripped fetal bovine serum (FBS) plus ligands at concentrations indicated in the figure legends for an additional 24 hr. DMSO concentration was maintained at 0.05% across all chemical treatments. Cells were lysed and assayed for luciferase and β-galactosidase activity as previously described ([Forman et al. 1995]). All transfections were performed in triplicate and reproduced in multiple experiments. Data are reported as fold induction or reduction over vehicle ([…]) controls ± SEM (standard error of the mean) using standard propagation of error ([Bevington and Robinson 2003]). […] The EC50, EC10, IC50, and IC10 values from NCGC and ToxCast™ are reported from gain AC50 and AC10 values in the ToxCast™ 2014 release ([Filer et al. 2014]).
Figure 1 ToxCast™ Chemical Activity on PPARγ. The ability of a graded dose series of ToxCast™ chemicals to (A) activate or (B) antagonize GAL4-mPPARγ was tested in transiently transfected COS7 cells. (A, B) Data points are averages of triplicate transfections (three biological replicates). […] Data are depicted as (A) fold induction or (B) reduction over vehicle (0.05% DMSO) controls ± SEM. (A) ToxCast™ chemicals were tested in 3-fold serial dilutions from 100 μM through 0.137 μM, with the final data point being 0.05% DMSO. Rosiglitazone serves as a positive control activator. (B) ToxCast™ chemicals were tested in 3-fold serial dilutions from 100 μM, in competition with 50 nM rosiglitazone (Rosi). […] (C) EC50, EC10, IC50, and IC10 values calculated from A and B are reported and compared to commercial assays (see Figure S1). Note: ATG, Attagene GAL-PPARγ activation assay; NCGC, GeneBLAzer® agonist (EC values) or antagonist (IC values) assays. Triphenyltin was previously published ([Kanayama et al. 2005]).

For data set [6], the system named is PPARγ. To be noted: ref Filer et al. 2014, cited from earlier work.
In data set [7] the test system is PPARγ. Also on record: method as in Filer et al. 2014. To be noted: PPARγ; NA = not active; ref Filer et al. 2014; read-out: NCGC Antag. AC50, 2014 Release; cited from earlier work.
The next data set has as its system Human PPARγ. The note with it: cited from earlier work.
Setting [8] is: ToxCast Phase I 2011 release, NA = not active, ref Knudsen et al. 2011, read-out: ATGT PPARγ AC50.
[9] abbreviates: PPARγ, NA = not active, read-out: NCGC Agonist AC50, 2014 Release.
[10] abbreviates: PPARγ, NA = not active, ref Filer et al. 2014, read-out: ATG Agonist AC50, 2014 Release.
[11] abbreviates: PPARγ, NA = not active, ref Knudsen et al. 2011, read-out: ATG Agonist AC50, 2011 Release.
[12] abbreviates: PPARγ direct binding, NA = not active, ref Filer et al. 2014, read-out: NVS Agonist AC50, 2014 Release.
Setting [13] is: PPARγ direct binding, NA = not active, ref Knudsen et al. 2011, read-out: NVS Agonist AC50, 2011 Release.

T1 sequence (P37238 with tags, fused parts or gaps limits assumed): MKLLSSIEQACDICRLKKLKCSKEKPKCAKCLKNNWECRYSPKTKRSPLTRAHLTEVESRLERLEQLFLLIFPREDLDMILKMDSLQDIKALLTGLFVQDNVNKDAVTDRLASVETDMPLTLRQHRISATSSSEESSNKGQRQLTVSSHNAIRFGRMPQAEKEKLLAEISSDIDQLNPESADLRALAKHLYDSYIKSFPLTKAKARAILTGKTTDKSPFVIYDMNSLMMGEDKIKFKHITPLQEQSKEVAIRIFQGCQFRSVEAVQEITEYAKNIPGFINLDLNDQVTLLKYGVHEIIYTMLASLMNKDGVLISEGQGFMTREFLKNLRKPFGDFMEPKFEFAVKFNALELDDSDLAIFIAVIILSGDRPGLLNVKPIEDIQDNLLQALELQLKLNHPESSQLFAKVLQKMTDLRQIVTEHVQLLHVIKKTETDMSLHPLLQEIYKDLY

In the case of `CC(C)(c1ccc(O)cc1)c1ccc(O)cc1` [Bisphenol A], the AC50 was 37 µM with PPRE and 27 µM in the data set with PPARγ [2] (setting [8]). In the data set on 3T3-L1 preadipocytes [1], the “Adipogenesis 3T3-L1 (result in words), previously published” value was “Positive”. The “Activation COS7 (result in words), ToxPi chemicals” value (“Activation COS7 … ToxPi chemicals” for short) at GAL4-mPPARγ is “Inactive”.
Regarding `COP(=S)(OC)Oc1ccc(SC)c(C)c1` [Fenthion], the AC50 in the data set on PPRE is 18 µM; in the data set on PPARγ [2] (setting [8]) it was 36 µM; in the data set on DR4/LXRE, 34 µM; with LXRβ [4], 37 µM; in the data set with LXRα, 33 µM. At GAL4-mPPARγ, the “Activation COS7 … ToxPi chemicals” value was “Inactive”. Moreover, in the data set with 3T3-L1 preadipocytes [3], the “Adipogenesis 3T3-L1 (result in words)” value is recorded as “Negative”.
In the case of `CCOP(=S)(Oc1cnc(C(C)(C)C)nc1)OC(C)C` (stereo not drawn) [Tebupirimfos], the AC50 is 7.1 µM with LXRβ [5]; 43 µM with PPARγ [2] (setting [8]); 9.4 µM in the data set with DR4/LXRE; 22 µM in the data set with LXRβ [4]; 31 µM in the data set with SREBP; 30 µM in the data set with LXRα. In addition, the “Activation COS7 … ToxPi chemicals” value on GAL4-mPPARγ is “Inactive”. For the same compound, the “Adipogenesis 3T3-L1 (result in words)” value with 3T3-L1 preadipocytes [3] is “Positive”.
Consider `CCCOC/C(=N\c1ccc(Cl)cc1C(F)(F)F)n1ccnc1` [Triflumizole], for which the “Concentration at which cytotoxicity (decreased β-galactosidase activity) was observed” value in the data set with COS7 cells came out at 100 µM. For the same compound, the AC50 in the data set with PPARγ [6] (setting [9]) is 67.5 µM; in the data set with PPARγ [6] (ToxCast 2014 release, read-out: Tox21/NCGC AC50 (panel A)), 79.9 µM; in the data set on PPARγ [2] (setting [10]) it was 2.2 µM; in the data set on PPARγ [2] (setting [11]), 2.8 µM; in the data set with PPARγ [2] (ToxCast 2014 release, ref Filer et al. 2014, read-out: Attagene AC50 (panel A, w/o Z-Score Correction ranking)), 20.4 µM; on GAL4-mPPARγ, 11.5 µM. Besides, the AC50 was 0.3 µM in the data set with PPARγ [7]; 20.8 µM in the data set on Human PPARγ (setting [12]); 35 µM in the data set with Human PPARγ (setting [13]); 14.1 µM in the data set on Human PPARγ (direct binding, ToxCast 2014 release, ref Filer et al. 2014, read-out: NovaScreen AC50 (panel A)). Further, the “Adipogenesis 3T3-L1 (result in words), previously published” value in the data set with 3T3-L1 preadipocytes [1] was “Positive”. In addition, the “Activation of GAL4-PPARγ (text)” value on GAL4-mPPARγ is recorded as “activated GAL-PPARγ”. At GAL4-mPPARγ, the “Activation COS7 (result in words), ToxCast PPARγ list” value is reported as “PPARγ activator”.
Regarding `[OH-].c1cc[c]([Sn+]([c]2ccccc2)[c]2ccccc2)cc1` [Triphenyltin], the AC50 in the data set with PPRE was 0.009 µM; in the data set on PPARγ [6] (setting [9]) it was 21.6 µM; in the data set on PPARγ [2] (setting [10]) it was 0.02 µM; in the data set with PPARγ [2] (setting [11]), 0.022 µM; on GAL4-mPPARγ (read-out: Activation AC50 (PPARγ activators)), 0.02 µM; with PPARγ [7], 0.02 µM. For the same compound, the AC50 is 0.28 µM in the data set on Human PPARγ (setting [12]) and 0.54 µM in the data set with Human PPARγ (setting [13]). For the same compound, the “Adipogenesis 3T3-L1 (result in words), previously published” value in the data set with 3T3-L1 preadipocytes [1] is “Positive”. In addition, the “Activation of GAL4-PPARγ (text)” value on GAL4-mPPARγ is “activated GAL-PPARγ”. Further, the “Activation COS7 (result in words), ToxCast PPARγ list” value at GAL4-mPPARγ is given as “PPARγ activator”. Moreover, the “Activation COS7 … ToxPi chemicals” value on GAL4-mPPARγ is given as “PPARγ activator”.
